The assay deals with T1, actin (F-actin) (Oryctolagus cuniculus, UniProt P68135).
T1 construct: gene ACTA1; Atto488-labeled F-actin from rabbit skeletal muscle
The experiment in a line: TIRF displacement of rhodamine-phalloidin from purified actin filaments; supported by pyrene, TIRF and FCS polymerization assays. The class given is binding. The source says: TIRF displacement of rhodamine-phalloidin from purified actin filaments; supported by pyrene, TIRF and FCS polymerization assays on actin (F-actin) | Rhodamine-labeled phalloidin could be displaced from actin filaments by MiuA in a concentration dependent manner

The compound `CO/C(=C1/NC(=O)C(Cc2ccc(O)c(Br)c2)N(C)C(=O)C(C)NC(=O)CCC/C=C(\C)CCC(C)OC1=O)c1ccccc1` (stereo not shown) [MiuA, Miuraenamide A] gave an IC50 of around 5 nM.

The record behind these values is publication PMC6611809, “Actin stabilizing compounds show specific biological effects due to their binding mode” (Scientific Reports, 2019).
